Results taken from PubChem BioAssay (NCI).
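Each compound was tested at five concentrations against cells in 96-well plates for 48 hours. GI50: concentration for 50% inhibition of growth. TGI marks complete inhibition of growth.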

Key:
Experiment in all cases: NCI anticancer screen, dose series, 48 h
RXF 393 renal = tested on: RXF 393 renal
HOP-18 NSCLC = tested on: HOP-18 NSCLC
NCI-H23 lung = tested on: NCI-H23 lung
U251 CNS = tested on: U251 CNS
CAKI-1 renal = tested on: CAKI-1 renal
HOP-62 NSCLC = tested on: HOP-62 NSCLC
DLD-1 colon = tested on: DLD-1 colon
UACC-62 melanoma = tested on: UACC-62 melanoma
A498 renal = tested on: A498 renal
OVCAR-3 ovarian = tested on: OVCAR-3 ovarian
NCI-H460 lung = tested on: NCI-H460 lung

Row | Structure (SMILES) | TGI (RXF 393 renal) | TGI (HOP-18 NSCLC) | TGI (NCI-H23 lung) | TGI (U251 CNS) | TGI (CAKI-1 renal) | TGI (HOP-62 NSCLC) | TGI (DLD-1 colon) | TGI (UACC-62 melanoma) | TGI (A498 renal) | TGI (OVCAR-3 ovarian) | TGI (NCI-H460 lung) | GI50 (RXF 393 renal) | GI50 (NCI-H23 lung) | GI50 (U251 CNS) | GI50 (CAKI-1 renal) | GI50 (HOP-62 NSCLC) | GI50 (UACC-62 melanoma) | GI50 (A498 renal) | GI50 (OVCAR-3 ovarian) | GI50 (NCI-H460 lung)
1 | CCC1=C(C[C@H]2NCCc3cc(OC)c(OC)cc32)C[C@H]2c3cc(OC)c(OC)cc3CCN2C1 | 0.0698 µM | > 100 µM | 0.0532 µM | 0.188 µM | 0.199 µM | 0.106 µM | 0.349 µM | 0.138 µM | 0.0497 µM | 0.158 µM | 0.134 µM |  |  |  |  |  |  |  |  | 
2 | Cc1ccc(N2C(=O)C3CSCN3C2=O)cc1 (configuration not stated) | > 100 µM | > 100 µM | > 100 µM | > 100 µM | > 100 µM | > 100 µM | > 100 µM | > 100 µM | > 100 µM | > 100 µM | > 100 µM | > 100 µM |  |  |  |  |  |  |  | 
3 | COc1ccc(OC)c2c(C)ccnc12 | > 100 µM |  | > 96.1 µM | > 100 µM | > 100 µM | > 60.9 µM |  | 93.5 µM | > 100 µM | 26 µM | > 100 µM |  |  |  |  |  |  |  |  | 
4 | CC(CCc1nc2ccccc2s1)(c1ccc(O)cc1)c1ccc(O)cc1 | 33.2 µM |  | 32 µM | 27.7 µM | 45 µM | 31.5 µM |  | 29.4 µM | 36.5 µM | 31.3 µM | 30 µM |  |  |  |  |  |  |  |  | 
5 | CC(OP(=O)(O)O)C(N)C(=O)O (configuration not stated) | > 100 µM |  | > 100 µM | > 100 µM | > 100 µM | > 100 µM |  | > 100 µM | > 100 µM | > 100 µM | > 100 µM |  |  |  |  |  |  |  |  | 
6 | CCOC(=O)C1CCC(=O)N1C(=O)c1cccc(Cl)c1 (configuration not stated) | > 100 µM |  | > 100 µM | > 100 µM | > 100 µM | > 100 µM |  | 62.4 µM | > 100 µM | > 100 µM | > 100 µM |  |  |  |  |  |  |  |  | 
7 | CCOC(=O)c1cc2c3c(c(C(C)=O)c(OC)c2[nH]1)N(C(=O)CC)CC3 | 37.2 µM |  | 25 µM | 47.6 µM | 35.9 µM | 56.9 µM |  | 34.4 µM | > 100 µM | 34.4 µM | 45.3 µM |  |  |  |  |  |  |  |  | 
8 | O=c1[nH]nc(-c2ccccc2)c2[nH]c3c(c12)Cc1ccccc1-3 | > 42.2 µM |  | > 100 µM | > 100 µM | > 100 µM | > 100 µM |  | 2.69 µM | > 100 µM | > 49 µM | > 100 µM |  |  |  |  |  |  |  |  | 
9 | O=c1[nH]cc(N=Cc2cc(Cl)ccc2O)c(=O)[nH]1 | > 100 µM |  | > 100 µM | 88.2 µM | > 100 µM | 53.7 µM |  | 71.7 µM | > 100 µM | > 100 µM | > 100 µM |  |  |  |  |  |  |  |  | 
10 | CCOC(=O)c1c(N2CCCC2)[nH]c(=O)c(C(c2ccc(N(C)C)cc2)c2c(O)c(C(=O)OCC)c(N3CCCC3)[nH]c2=O)c1O | > 100 µM |  | > 100 µM | > 100 µM | > 100 µM | > 100 µM |  | > 100 µM | > 100 µM | > 100 µM | > 100 µM |  |  |  |  |  |  |  |  | 
11 | O=c1cc(-c2ccccc2)oc2c1ccc1[nH]c3ccccc3c(=O)c12 | > 100 µM |  | > 100 µM | > 100 µM | > 100 µM | > 100 µM |  | > 100 µM | > 100 µM | > 100 µM | 36.9 µM |  |  |  |  |  |  |  |  | 
12 | O=C1C=CC(=O)c2c(O)c(N3CCOCC3)c(Cl)c(O)c21 | 0.464 µM |  | 0.589 µM | 2.62 µM | 1.27 µM | 2.36 µM |  | 1.41 µM | 3.01 µM | 1.31 µM | 2.71 µM |  |  |  |  |  |  |  |  | 
13 | CCOc1ccc2nc3nc(=O)[nH]c(C)c3c(NC(C)(CO)CO)c2c1 | > 100 µM |  | > 100 µM | > 100 µM | > 100 µM | > 100 µM |  | > 100 µM | > 100 µM | > 100 µM | > 100 µM |  |  |  |  |  |  |  |  | 
14 | C/C(=N\Nc1nc2ccccc2[nH]1)c1ncccn1 | > 32.5 µM |  | 8.58 µM | > 100 µM | 23.7 µM | 49.4 µM |  | 2.88 µM | 2.23 µM | 6.7 µM | > 100 µM |  |  |  |  |  |  |  |  | 
15 | [N-]=[N+]=Nc1nc2ccccc2c(N=[N+]=[N-])c1Cl | > 100 µM |  | > 100 µM | > 100 µM | > 100 µM | > 100 µM |  | > 100 µM | 46.9 µM | > 100 µM | > 100 µM |  |  |  |  |  |  |  |  | 
16 | O=C(Nc1ccc(-n2cc(-c3ccncc3)c(-c3ccc(O)c(Cl)c3)n2)cc1)c1ccc(Cl)c(C(F)(F)F)c1 | 1.64 µM |  | > 50 µM | 6.76 µM | 14.7 µM | > 50 µM |  | 14.2 µM | > 50 µM | 7.33 µM | > 50 µM | 0.717 µM | 2.55 µM | 0.867 µM | 2.05 µM | 2.31 µM | 3.38 µM | 41.7 µM | 1.63 µM | 1.94 µM
17 | O=C1C(N2CCN(CCOCCO)CC2)=C(Cl)C(=O)c2ncccc21 | 35.1 µM |  | 42.5 µM | 35.9 µM | 31.8 µM | > 100 µM |  | 43.8 µM | > 100 µM | 32.7 µM | > 100 µM |  |  |  |  | > 100 µM |  | > 100 µM |  | 
18 | Cc1nc(C)c(N2CCN(CN)CC2)c(=O)[nH]1 | > 100 µM |  | > 100 µM | > 100 µM | > 100 µM | > 100 µM |  | > 100 µM | > 100 µM | > 100 µM | > 100 µM |  |  |  |  |  |  |  |  | 
19 | Cc1nc2ccc(Cl)cc2c2c1CCO2 | 71.3 µM |  | > 100 µM | > 100 µM | 79.6 µM | > 100 µM |  | > 100 µM | > 100 µM | > 100 µM | > 100 µM |  |  |  |  |  |  |  |  | 
20 | NC1CCCCC1NCCNC1CCCCC1N (configuration not stated) | > 100 µM |  | 96.8 µM | > 100 µM | > 100 µM | > 100 µM |  | > 100 µM | > 100 µM | > 100 µM | > 100 µM |  |  |  |  |  |  |  |  | 
21 | C=CC(C)(C)/C=C/c1ccc(O)cc1 | > 100 µM |  | > 100 µM | > 100 µM | > 100 µM | > 100 µM |  | > 100 µM | > 100 µM | > 100 µM | > 100 µM |  |  |  |  |  |  |  |  | 
22 | Nc1ccc2c(=O)cc(-c3ccc(Br)s3)[nH]c2n1 | > 100 µM |  | > 23.4 µM | > 74.4 µM | > 100 µM | > 100 µM |  | > 100 µM | > 100 µM | > 100 µM | > 100 µM |  |  |  |  |  |  |  |  | 
23 | Oc1ccc2ccccc2c1OCc1nnc(CCCCCCCCc2nnc(COc3c(O)ccc4ccccc34)n2Nc2ccccc2)n1Nc1ccccc1 | > 78 µM |  | > 75.2 µM | > 58.9 µM | > 56.5 µM | 41.9 µM |  | 26.6 µM | > 100 µM | 32.1 µM | > 100 µM |  |  |  |  |  |  |  |  | 
24 | C=C(Br)C[N+]12CN3CN(CN(C3)C1)C2 | > 100 µM |  | > 100 µM | > 100 µM | > 100 µM | > 100 µM |  | > 100 µM | > 100 µM | > 100 µM | > 100 µM |  |  |  |  |  |  |  |  | 
